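A five-concentration, 48-hour dose response in 96-well plates underlies each endpoint, interpolated linearly between surrounding concentrations. GI50: concentration for 50% inhibition of growth.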 Calls of active or inactive are those of the source. Rule as the data show it: active = GI50 up to about 1.1 µM and inactive = higher. Bounds are passed on as bounds.

The term GI50 denotes the concentration giving 50% growth inhibition.

Assay in all cases: DTP human tumour cell line panel, 48 h
The test system of assay [1] is A498.
Assay [2] concerns ACHN.
For assay [3], the system named is CCRF-CEM.
For assay [4], the system named is HOP-62.
In assay [5] the test system is IGROV-1.
Assay [6] relates to K562.
The subject of assay [7] is LOX IMVI.
Assay [8] concerns MCF7.
Assay [9] concerns Malme-3M.
Assay [10] relates to NCI-H226.
The subject of assay [11] is NCI-H522.
The test system of assay [12] is PC-3.
Assay [13] deals with RXF 393.
The subject of assay [14] is SF-268.
For assay [15], the system named is SK-MEL-5.
For assay [16], the system named is SN12C.
Assay [17] has as its system SW-620.
Assay [18] concerns T47D.
In assay [19] the test system is U-251.
In assay [20] the test system is RPMI-8226.

Take `COC(=O)C1(CCCCCBr)CCCCCCCCCCC1=O` (centres undefined): the GI50 is 28.3 µM (inactive) in assay [1]; 40.7 µM (inactive) in assay [2]; 22.6 µM (inactive) in assay [3]; > 100 µM (inactive) in assay [4]; 30.5 µM (inactive) in [5]; 32.9 µM (inactive) in assay [6]. For the same compound, the GI50 is 27.3 µM (inactive) in assay [7]; 15.7 µM (inactive) in assay [8]; 19.7 µM (inactive) in [9]; 23.6 µM (inactive) in assay [10]; 20.5 µM (inactive) in [11]; 44.1 µM (inactive) in [12]. Besides, the GI50 in assay [13] was 23.4 µM (inactive); in assay [14], 51.6 µM (inactive); in [15], 16.3 µM (inactive); in assay [16], 37.6 µM (inactive); in assay [17], 72.4 µM (inactive); in [18], 32.8 µM (inactive). In addition, the GI50 in assay [19] was 28.3 µM (inactive).
Take `COC(=O)C(C(=O)C(=O)NC1Nc2ccc(C)cc2S1)c1nc2ccc(Cl)cc2nc1O` (centres undefined): the GI50 in [1] is > 100 µM (inactive); in [2] it was > 100 µM (inactive); in assay [4] it was > 100 µM (inactive); in assay [5] it was 40.6 µM (inactive); in assay [6], > 100 µM (inactive); in assay [7], > 100 µM (inactive). Also, the GI50 in [8], in assay [9], in assay [10], in [11], in assay [12] and in assay [20] was > 100 µM (inactive) throughout. For the same compound, the GI50 in [13], in [14], in assay [15], in assay [16], in [17] and in [18] was > 100 µM (inactive) each time. Moreover, in assay [19], the GI50 was > 100 µM (inactive).
With `CC(C)(C)OC(=O)CCC1NC(=O)[C@@H]2Cc3c([nH]c4ccccc34)C(c3ccccc3)N2C1=O` (some centres undefined), the GI50 was 36.2 µM (inactive) in assay [1]; 27.9 µM (inactive) in assay [2]; 24.2 µM (inactive) in [4]; 31.3 µM (inactive) in assay [5]; > 100 µM (inactive) in [6]; 18.8 µM (inactive) in assay [7]. Also, the GI50 in assay [8] was 32.4 µM (inactive); in [9], 16.4 µM (inactive); in assay [10], 30.4 µM (inactive); in assay [11] it was 25.2 µM (inactive); in [12], 19.3 µM (inactive); in assay [20], 36.9 µM (inactive). The GI50 in [13] was 18.2 µM (inactive); in assay [14], 24.7 µM (inactive); in assay [15] it was 17.6 µM (inactive); in assay [16], 23.7 µM (inactive); in assay [17] it was 41.7 µM (inactive); in [18] it was 27.8 µM (inactive). For the same compound, in assay [19], the GI50 is 18.2 µM (inactive).
`[O-][Cl+3]([O-])([O-])O.c1ccc(C2=NN2c2ccccc2)cc1`: the GI50 was > 100 µM (inactive) in assay [1]; 0.927 µM (active) in [2]; > 100 µM (inactive) in assay [3]; > 100 µM (inactive) in [4]; 34 µM (inactive) in [5]; 2.32 µM (inactive) in assay [6]. The 50% growth inhibitory concentration (GI50) is 0.451 µM (active) in assay [7]; 60 µM (inactive) in [8]; 29.5 µM (inactive) in assay [9]; 14.3 µM (inactive) in assay [10]; 35.3 µM (inactive) in assay [11]; 6.7 µM (inactive) in assay [12]. The GI50 in assay [13] was > 100 µM (inactive); in assay [14], 21.8 µM (inactive); in assay [15] it was 13.8 µM (inactive); in [16], > 100 µM (inactive); in assay [17] it was 6.01 µM (inactive); in [18] it was 7.13 µM (inactive). For the same compound, the GI50 in assay [19] is > 100 µM (inactive).
Regarding `O=C(N/N=C(COc1ccccc1Cl)\N=C\c1cccnc1)c1ccncc1`, the GI50 in assay [1], in [2], in [3], in assay [4], in [5] and in [6] was > 100 µM (inactive) throughout. Besides, the GI50 in [7], in assay [8], in assay [9], in assay [10], in [11] and in assay [12] was > 100 µM (inactive) in each case. Besides, the GI50 in assay [20], in assay [13], in [14], in assay [16], in assay [17] and in assay [18] was > 100 µM (inactive) throughout. Besides, in [19], the GI50 is > 100 µM (inactive).
As to `COC(=O)[C@@H](N1C(=O)c2ccccc2C1=O)C1(C)CC(Cl)=NO1` (some centres undefined), the GI50 in assay [1] is 34.7 µM (inactive); in assay [2], > 100 µM (inactive); in assay [3], > 100 µM (inactive); in [4] it was 17 µM (inactive); in assay [5], 17.7 µM (inactive); in assay [6], > 100 µM (inactive). Moreover, the GI50 in assay [8] was 53.6 µM (inactive); in [9] it was > 100 µM (inactive); in assay [10], 38.8 µM (inactive); in assay [11], 35 µM (inactive); in assay [12] it was > 100 µM (inactive); in assay [20], > 100 µM (inactive). Moreover, the GI50 in assay [13] was 41.5 µM (inactive); in [14], 29.3 µM (inactive); in assay [15] it was > 100 µM (inactive); in assay [16], 33 µM (inactive); in assay [17], > 100 µM (inactive); in assay [18] it was 28.5 µM (inactive). Besides, the GI50 in [19] was 26.2 µM (inactive).
Turning to `COc1ccc(N2C(=O)C3ON(C(C(N)=O)c4ccccc4)C(c4cc5ccccc5c5ccccc45)C3C2=O)cc1` (centres undefined), the GI50 was > 50 µM (inactive) in assay [1]; > 50 µM (inactive) in assay [2]; 12.7 µM (inactive) in assay [3]; > 50 µM (inactive) in assay [4]; 18.4 µM (inactive) in [5]; 22.9 µM (inactive) in assay [6]. Further, the GI50 in [7] was 24.2 µM (inactive); in assay [8], 15.6 µM (inactive); in assay [9], > 50 µM (inactive); in assay [10] it was 26.3 µM (inactive); in [11], 29.5 µM (inactive); in [12], 30.7 µM (inactive). Moreover, the GI50 in [13] was 21.8 µM (inactive); in [14], 40.9 µM (inactive); in assay [15], 19.7 µM (inactive); in assay [16], 14 µM (inactive); in assay [17], 26.9 µM (inactive); in [18], 28.6 µM (inactive). In assay [19], the GI50 was 38.5 µM (inactive).
Regarding `Cc1ccc(NC(=O)/C=C/c2ccccc2)c(C)c1`, the GI50 in assay [1] was > 100 µM (inactive); in assay [2], 39.6 µM (inactive); in [3], > 100 µM (inactive); in assay [4], 32.7 µM (inactive); in assay [6], > 100 µM (inactive); in assay [7] it was > 100 µM (inactive). For the same compound, the GI50 was > 100 µM (inactive) in [8]; 86.9 µM (inactive) in assay [9]; 13.9 µM (inactive) in assay [10]; 30 µM (inactive) in assay [11]; > 100 µM (inactive) in assay [12]; > 100 µM (inactive) in [20]. Besides, the GI50 is 52 µM (inactive) in assay [14]; > 100 µM (inactive) in [15]; 94.8 µM (inactive) in assay [16]; > 100 µM (inactive) in assay [17]; > 100 µM (inactive) in assay [18]; 76 µM (inactive) in [19].
As for `CCN(CC)CCCNc1nncc2c(C)c3[nH]c4ccccc4c3cc12`, the 50% growth inhibitory concentration (GI50) is 0.665 µM (active) in assay [1]; 0.914 µM (active) in assay [2]; 0.02 µM (active) in assay [3]; 0.378 µM (active) in assay [4]; 0.617 µM (active) in assay [5]; 0.242 µM (active) in [7]. Also, the concentration for 50% growth inhibition (GI50) in assay [8] is 0.331 µM (active); in assay [9] it was 1.04 µM (active); in assay [10] it was 0.255 µM (active); in assay [11] it was 0.16 µM (active); in [12], 0.705 µM (active); in assay [13] it was 1.63 µM (inactive). For the same compound, the GI50 in assay [15] was 1.99 µM (inactive); in [16], 0.292 µM (active); in assay [18], 0.705 µM (active); in assay [19], 0.605 µM (active).
`O=C1OC2(c3ccc(O)cc3Oc3cc(O)ccc32)c2c1c(-c1ccccc1)c(-c1ccccc1)c(-c1ccccc1)c2-c1ccccc1`: the GI50 in assay [1] was 19.7 µM (inactive); in [2], 19.9 µM (inactive); in assay [4], 23.7 µM (inactive); in [5], 19.1 µM (inactive); in assay [6], 29.6 µM (inactive); in [7], 18.5 µM (inactive). Besides, the GI50 in assay [8] is 17.1 µM (inactive); in assay [9], 23.5 µM (inactive); in assay [10], 46.3 µM (inactive); in assay [11] it was 18.2 µM (inactive); in assay [12], 17.9 µM (inactive); in assay [20], 27.7 µM (inactive). The GI50 is 23.7 µM (inactive) in [13]; 22.2 µM (inactive) in [14]; 27.7 µM (inactive) in [15]; 25.1 µM (inactive) in assay [16]; 20.9 µM (inactive) in [17]; 26.5 µM (inactive) in [18]. Moreover, the GI50 in assay [19] is 17.7 µM (inactive).
`COc1ccc2nc(-c3ccc(O)cc3)sc2c1`: the GI50 in assay [1] is 30.3 µM (inactive); in assay [2] it was 18 µM (inactive); in assay [5] it was 19.1 µM (inactive); in assay [6] it was 36.2 µM (inactive); in assay [7] it was 22.6 µM (inactive); in [8], 34.7 µM (inactive). For the same compound, the GI50 in assay [9] was 23.5 µM (inactive); in assay [10], 23.5 µM (inactive); in assay [11], 16.8 µM (inactive); in [12] it was 18.5 µM (inactive); in assay [20] it was < 0.01 µM (active); in [13], 20.1 µM (inactive). Further, the GI50 was 21.1 µM (inactive) in assay [14]; 18.2 µM (inactive) in assay [15]; 20.6 µM (inactive) in assay [16]; 21.8 µM (inactive) in [17]; 17.5 µM (inactive) in [18]; 19.6 µM (inactive) in assay [19].

For the origin of these results see ChEMBL document CHEMBL1201862, “PubChem BioAssay data set” (2004).
